Data: PubChem BioAssay AID330 (DTP/NCI, 2004)
Several values for one entry are separate records, joined by “and”; a condition that tells them apart may be missing. Equal values may be shown once. Toxic doses and inconclusive results are not listed.

Tested on: P388 leukemia ip, CD2F1 mice, survival T/C
Assay: NCI In Vivo Anticancer Drug Screen. Data for tumor model P388 Leukemia (intraperitoneal) in CD2F1 (CDF1) mice
Settings: endpoint: median survival time, higher = longer survival
Outline: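 Mice carrying the transplanted tumor received test compound or vehicle. Survival was recorded in each group, and the value is the treated-group measurement divided by that of the vehicle-treated control group.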

[1] = dose: 100.0 mg/kg/injection, schedule: Q04DX002 (ip), vehicle: saline with Tween-80
[2] = dose: 200.0 mg/kg/injection, schedule: Q04DX002 (ip), vehicle: saline with Tween-80
[3] = dose: 400.0 mg/kg/injection, schedule: Q04DX002 (ip), vehicle: saline with Tween-80
[4] = dose: 50.0 mg/kg/injection, schedule: Q01DX005 (ip), vehicle: saline with Tween-80
[5] = dose: 100.0 mg/kg/injection, schedule: Q01DX005 (ip), vehicle: saline with Tween-80
[6] = dose: 200.0 mg/kg/injection, schedule: Q01DX005 (ip), vehicle: saline with Tween-80
[7] = dose: 50.0 mg/kg/injection, schedule: Q01DX005 (ip), vehicle: Klucel (hydroxypropylcellulose) (HPC)
[8] = dose: 100.0 mg/kg/injection, schedule: Q01DX005 (ip), vehicle: Klucel (hydroxypropylcellulose) (HPC)
[9] = dose: 200.0 mg/kg/injection, schedule: Q01DX005 (ip), vehicle: Klucel (hydroxypropylcellulose) (HPC)
[10] = dose: 100.0 mg/kg/injection, schedule: Q04DX003 (ip), vehicle: saline with Tween-80
[11] = dose: 200.0 mg/kg/injection, schedule: Q04DX003 (ip), vehicle: saline with Tween-80
[12] = dose: 60.0 mg/kg/injection, schedule: Q01DX005 (ip), vehicle: saline
[13] = dose: 120.0 mg/kg/injection, schedule: Q01DX005 (ip), vehicle: saline
[14] = dose: 240.0 mg/kg/injection, schedule: Q01DX005 (ip), vehicle: saline
[15] = dose: 50.0 mg/kg/injection, schedule: Q01DX009 (ip), vehicle: saline
[16] = dose: 50.0 mg/kg/injection, schedule: Q01DX009 (ip), vehicle: saline with Tween-80
[17] = dose: 100.0 mg/kg/injection, schedule: Q01DX009 (ip), vehicle: saline with Tween-80
[18] = dose: 200.0 mg/kg/injection, schedule: Q01DX009 (ip), vehicle: saline with Tween-80
[19] = dose: 12.5 mg/kg/injection, schedule: Q01DX009 (ip), vehicle: saline
[20] = dose: 25.0 mg/kg/injection, schedule: Q01DX009 (ip), vehicle: saline

CC(=N\O)/C(C)=N/O.CC(=N\O)/C(C)=N/O.[Cl][Rh][Cl]
T/C (dose: 200.0 mg/kg/injection, schedule: Q04DX003 (ip), vehicle: saline): 100 % of control | T/C (dose: 400.0 mg/kg/injection, schedule: Q04DX003 (ip), vehicle: saline): 95 % of control

c1ccc2c(CNC3CCCCC3)c[nH]c2c1
T/C (dose: 25.0 mg/kg/injection, schedule: Q01DX009 (ip), vehicle: Klucel (hydroxypropylcellulose) (HPC)): 109 % of control | T/C (dose: 50.0 mg/kg/injection, schedule: Q01DX009 (ip), vehicle: Klucel (hydroxypropylcellulose) (HPC)): 98 % of control | T/C (dose: 100.0 mg/kg/injection, schedule: Q01DX009 (ip), vehicle: Klucel (hydroxypropylcellulose) (HPC)): 96 % of control

C1=C(c2ccc(OCc3ccccc3)c(OCc3ccccc3)c2)CC2CCCCC2C1 (centres undefined)
T/C [1]: 93 % of control | T/C [2]: 93 % of control | T/C [3]: 111 % of control

CCOC(=O)C1=NNC(C#N)C1 (centres undefined)
T/C [4]: 101 % of control | T/C [5]: 97 % of control | T/C [6]: 99 % of control

CCCCCCCCn1c(C)nc2c(cnn2C)c1=O
T/C [7]: 100 % of control | T/C [8]: 96 % of control | T/C [9]: 100 % of control

CCOc1ccc2c(O)csc2c1
T/C [10]: 100 % of control | T/C [11]: 100 % of control | T/C (dose: 400.0 mg/kg/injection, schedule: Q04DX003 (ip), vehicle: saline with Tween-80): 90 % of control

Cn1c(N)c(C(=O)Nc2ccccc2)c(=O)n(C)c1=O
T/C (dose: 100.0 mg/kg/injection, schedule: Q01DX001 (ip), vehicle: Klucel (hydroxypropylcellulose) (HPC)): 87 % of control | T/C (dose: 200.0 mg/kg/injection, schedule: Q01DX001 (ip), vehicle: Klucel (hydroxypropylcellulose) (HPC)): 88 % of control

CC1(C)N=C(N)N=C(N)N1c1ccc(CNC(=O)Nc2cccc(S(=O)(=O)F)c2)cc1
T/C (dose: 100.0 mg/kg/injection, schedule: Q04DX003 (ip), vehicle: saline): 154 % of control | T/C (dose: 150.0 mg/kg/injection, schedule: Q04DX003 (ip), vehicle: saline): 168 % of control | T/C (dose: 225.0 mg/kg/injection, schedule: Q04DX003 (ip), vehicle: saline): 200 % of control

CCc1cc(CN2CCN(CCO)CC2)c(O)c(CN2CCN(CCO)CC2)c1
T/C [12]: 102 % of control | T/C [13]: 97 % of control | T/C [14]: 99 % of control

O=S(=O)(c1ccccc1)N1CCCCN(S(=O)(=O)c2ccccc2)COC1
T/C [7]: 104 % of control | T/C [8]: 102 % of control | T/C [9]: 102 % of control

COC1=CCC2=C(CC[C@H]3[C@H]2CCP3C)C1 (some centres undefined)
T/C [4]: 101 % of control | T/C [5]: 111 % of control | T/C [6]: 103 % of control

Clc1nn2nnnc2c2ccccc12
T/C (dose: 5.0 mg/kg/injection, schedule: Q01DX009 (ip), vehicle: saline): 100 % of control and 96 % of control | T/C (dose: 10.0 mg/kg/injection, schedule: Q01DX009 (ip), vehicle: saline): 95 % of control and 97 % of control | T/C (dose: 20.0 mg/kg/injection, schedule: Q01DX009 (ip), vehicle: saline): 89 % of control and 94 % of control | T/C (dose: 40.0 mg/kg/injection, schedule: Q01DX009 (ip), vehicle: saline): 100 % of control and 91 % of control

CCOP(=O)(CSCCC1(C)NC(=O)NC1=O)OCC (centres undefined)
T/C [12]: 102 % of control | T/C [13]: 103 % of control | T/C [14]: 102 % of control

COc1ccc2nc3cc(Cl)ccc3c(NCCCCNc3c4ccc(Cl)cc4nc4ccc(OC)nc34)c2n1
T/C [10]: 102 % of control | T/C [11]: 118 % of control

C1=Cc2ccccc2C(c2ccccc2)S1 (centres undefined)
T/C [15]: 98 % of control | T/C (dose: 100.0 mg/kg/injection, schedule: Q01DX009 (ip), vehicle: saline): 88 % of control | T/C (dose: 200.0 mg/kg/injection, schedule: Q01DX009 (ip), vehicle: saline): 93 % of control | T/C (dose: 400.0 mg/kg/injection, schedule: Q01DX009 (ip), vehicle: saline): 89 % of control

Nc1nc(-c2ccc(Nc3ccnc4cc(Cl)ccc34)cc2)cs1
T/C [4]: 96 % of control | T/C [5]: 88 % of control | T/C [6]: 86 % of control

CC(C)=NNC1=NC(CC(C)C)P(=O)(NCCCCNP2(=O)SC(NN=C(C)C)=NC2CC(C)C)S1 (centres undefined)
T/C [4]: 103 % of control | T/C [5]: 103 % of control | T/C [6]: 101 % of control

CCCCCCCCCCCCCCCCCCCCCC(=O)OC
T/C [16]: 100 % of control | T/C [17]: 100 % of control | T/C [10]: 91 % of control | T/C [18]: 100 % of control | T/C [11]: 87 % of control

CCCCCCC[N+]1(CC)CCCCC1
T/C (dose: 6.25 mg/kg/injection, schedule: Q01DX009 (ip), vehicle: saline): 104 % of control | T/C [19]: 106 % of control | T/C [20]: 115 % of control

CC(C(=O)O)N1C(=O)CNC1=O (centres undefined)
T/C [7]: 93 % of control | T/C [8]: 91 % of control | T/C [9]: 100 % of control

CCOc1cc2c(cc1C(C)c1ccc(OC)cc1)OCO2 (centres undefined)
T/C (dose: 25.0 mg/kg/injection, schedule: Q01DX005 (ip), vehicle: distilled water + alcohol): 96 % of control | T/C (dose: 50.0 mg/kg/injection, schedule: Q01DX005 (ip), vehicle: distilled water + alcohol): 100 % of control and 119 % of control | T/C (dose: 100.0 mg/kg/injection, schedule: Q01DX005 (ip), vehicle: distilled water + alcohol): 123 % of control | T/C (dose: 200.0 mg/kg/injection, schedule: Q01DX005 (ip), vehicle: distilled water + alcohol): 92 % of control

CCC[CH2][Sn]1([CH2]CCC)[O]C2C(O)OC(CO)C(O)C2[O]1 (centres undefined)
T/C (dose: 1.56 mg/kg/injection, schedule: Q04DX003 (ip), vehicle: saline): 107 % of control | T/C (dose: 3.12 mg/kg/injection, schedule: Q04DX003 (ip), vehicle: saline): 107 % of control and 109 % of control | T/C (dose: 6.25 mg/kg/injection, schedule: Q04DX003 (ip), vehicle: saline): 111 % of control

CC(=O)OCC12C(=O)CC(C)C3(CC(c4ccoc4)OC3=O)C1(C)CCCC21CO1 (centres undefined)
T/C (dose: 3.12 mg/kg/injection, schedule: Q01DX005 (ip), vehicle: Klucel (hydroxypropylcellulose) (HPC)): 97 % of control | T/C (dose: 6.25 mg/kg/injection, schedule: Q01DX005 (ip), vehicle: Klucel (hydroxypropylcellulose) (HPC)): 97 % of control | T/C (dose: 12.5 mg/kg/injection, schedule: Q01DX005 (ip), vehicle: Klucel (hydroxypropylcellulose) (HPC)): 99 % of control | T/C (dose: 25.0 mg/kg/injection, schedule: Q01DX005 (ip), vehicle: Klucel (hydroxypropylcellulose) (HPC)): 92 % of control | T/C [7]: 94 % of control

CC(=O)c1cc(-c2ccc3ccccc3c2)nc2ccccc12
T/C [4]: 96 % of control | T/C [5]: 94 % of control | T/C [6]: 100 % of control

O=C1C2=C(OCCO2)C(=O)C2=C1OCCO2
T/C [1]: 99 % of control | T/C [2]: 111 % of control | T/C [3]: 106 % of control

COc1ccc(/C=N\NC(=O)CNC(=O)Nc2cccc(C(F)(F)F)c2)cc1OC
T/C (dose: 3.13 mg/kg/injection, schedule: Q01DX009 (ip), vehicle: saline with Tween-80): 112 % of control | T/C (dose: 6.25 mg/kg/injection, schedule: Q01DX009 (ip), vehicle: saline with Tween-80): 108 % of control | T/C (dose: 12.5 mg/kg/injection, schedule: Q01DX009 (ip), vehicle: saline with Tween-80): 91 % of control

N#CCCCOCCCOCCCOCCCOCCCOCCCC#N
T/C (dose: 8.75 mg/kg/injection, schedule: Q01DX005 (ip), vehicle: saline with Tween-80): 102 % of control | T/C (dose: 17.5 mg/kg/injection, schedule: Q01DX005 (ip), vehicle: saline with Tween-80): 100 % of control | T/C (dose: 35.0 mg/kg/injection, schedule: Q01DX005 (ip), vehicle: saline with Tween-80): 100 % of control | T/C [4]: 121 % of control | T/C (dose: 70.0 mg/kg/injection, schedule: Q01DX005 (ip), vehicle: saline with Tween-80): 108 % of control | T/C [6]: 110 % of control

CC(C)=NOC1CCCCC1OS(=O)(=O)c1ccc(C)cc1 (centres undefined)
T/C [16]: 94 % of control | T/C [17]: 95 % of control | T/C [18]: 110 % of control

O=C1c2ccccc2SC[C@@H]2CCCN12
T/C [12]: 101 % of control | T/C [13]: 99 % of control | T/C [14]: 99 % of control

COC1(OC)C(=S)N(C2CCCCC2)C(=S)N1C1CCCCC1
T/C [7]: 95 % of control | T/C [8]: 95 % of control | T/C [9]: 96 % of control

CCCCCCCCCCCCC[N+]1([O-])CCCCC1
T/C [19]: 95 % of control | T/C [20]: 92 % of control | T/C [15]: 87 % of control and 89 % of control

OC(Nc1nccs1)C(F)(F)F (centres undefined)
T/C [19]: 99 % of control | T/C [20]: 100 % of control | T/C [16]: 95 % of control | T/C [15]: 101 % of control
